Experimental data: ChEMBL document CHEMBL1137399, “Synthesis, structure-activity relationships, and antitumor studies of 2-benzoxazolyl hydrazones derived from alpha-(N)-acyl heteroaromatics” (J Med Chem, 2006)
Activity calls are given as the source filed them. No cut-off for these calls is given here.

Columns and labels:
HeLa [1] = assay: Antiproliferative activity against HeLa cells by SRB assay; format: functional, cell-based; settings: Homo sapiens
CCRF-CEM = assay: Antiproliferative activity against CCRF-CEM cells by MTT assay; format: functional, cell-based; settings: Homo sapiens
Burkitts lymphoma cell = assay: Antiproliferative activity against Burkitt cells by MTT assay; format: functional, cell-based; settings: Homo sapiens
HT-29 = assay: Antiproliferative activity against HT29 cells by SRB assay; format: functional, cell-based; settings: Homo sapiens
HeLa [2] = assay: Antiproliferative activity against HeLa-mdr1 cells overexpressing P-glycoprotein in presence of verapamil by SRB assay; format: functional, cell-based; settings: Homo sapiens
HL-60 = assay: Ratio for antiproliferative activity against HL60/AR cells to wild type HL60 by MTT assay; format: functional, Homo sapiens
OVCAR-3 = assay: Net cell kill against human OVCAR-3 cells by hollow fiber assay; format: functional, cell-based
SF-295 = assay: Net cell kill against human SF295 cells by hollow fiber assay; format: functional, cell-based

IC50 (HeLa [1]) [nM]	IC50 (CCRF-CEM) [nM]	IC50 (Burkitts lymphoma cell) [nM]	IC50 (HT-29) [nM]	SMILES	Activity (HeLa [2])	Ratio IC50 (HL-60)	Activity (OVCAR-3)	Activity (SF-295)
340	350	200	1930	C/C(=N\Nc1nc2ccccc2o1)c1nccc2ccccc12	–	–	–	–
52	4	2	409	CC/C(=N\Nc1nc2ccccc2o1)c1ccccn1	–	–	–	–
1180	720	1300	2640	C/C(=N\Nc1nc2ccccc2o1)c1cccnn1	–	–	–	–
180	130	30	270	C/C(=N\Nc1nc2ccccc2o1)c1ncccn1	–	–	–	–
3390	2550	6270	6770	C/C(=N\Nc1nc2ccccc2o1)c1ccc(C)nn1	–	–	–	–
370	620	150	290	C/C(=N\Nc1nc2ccccc2o1)c1cnc(C)cn1	–	–	–	–
500	360	144	190	C/C(=N\Nc1nc2ccccc2o1)c1ccncn1	–	–	–	–
> 100000	> 100000	> 100000	> 100000	C/C(=N\Nc1nc2ccccc2o1)c1cccnc1	–	–	–	–
770	24	5	1430	C/C(=N\Nc1nc2ccccc2o1)c1ccccn1	–	–	–	–
1860	1300	900	2140	C/C(=N\Nc1nc2ccccc2o1)c1nccnc1C	–	–	–	–
100	140	30	40	C/C(=N\Nc1nc2ccccc2o1)c1cc2ccccc2cn1	inactive	1.7	Active	Active
288	–	27	4780	C/C(=N\Nc1nc2ccccc2o1)c1cccc[n+]1[O-]	–	–	–	–

Second part, the molecule before the results:

SMILES	IC50 (HeLa [1]) [nM]	IC50 (CCRF-CEM) [nM]	IC50 (Burkitts lymphoma cell) [nM]	IC50 (HT-29) [nM]	Activity (HeLa [2])	Ratio IC50 (HL-60)	Activity (OVCAR-3)	Activity (SF-295)
c1ccc(C/C(=N\Nc2nc3ccccc3o2)c2ccccn2)cc1	42	> 10000	> 10000	219	–	–	–	–
CC(C)/C(=N\Nc1nc2ccccc2o1)c1ccccn1	185	21	14	645	–	–	–	–
c1ccc(/C(=N\Nc2nc3ccccc3o2)c2ccccn2)cc1	43	78	120	44	–	–	–	–
CC(C)(C)/C(=N\Nc1nc2ccccc2o1)c1ccccn1	> 10000	> 10000	> 10000	> 10000	–	–	–	–
C/C(=N\Nc1nc2ccccc2o1)c1cc(C)ncn1	210	230	42	110	–	–	–	–
C/C(=N\Nc1nc2ccccc2o1)c1ccc2ccccc2n1	4530	7040	5490	7760	–	–	–	–
CCC/C(=N\Nc1nc2ccccc2o1)c1ccccn1	153	6	6	851	–	–	–	–
CC[C@]1(O)C[C@@H]2CN(CCc3c([nH]c4ccccc34)[C@@](C(=O)OC)(c3cc4c(cc3OC)N(C)[C@H]3[C@@](O)(C(=O)OC)[C@H](OC(C)=O)[C@]5(CC)C=CCN6CC[C@]43[C@@H]65)C2)C1	–	–	–	–	Active	–	–	–
C/C(=N\N(C)c1nc2ccccc2o1)c1ccccn1	> 50000	> 50000	> 50000	> 50000	–	–	–	–
c1ccc(/C(=N/Nc2nc3ccccc3o2)C2CC2)nc1	4490	–	185	20600	–	–	–	–
c1ccc(C(=NNc2nc3ccccc3o2)c2ccccn2)nc1	156	44	12	6980	–	–	–	–
